According to the NIST ThermoML archive (doi:10.1016/j.jct.2015.05.006):

Legend:
[1] = 101.33 kPa, Liquid, Vibrating tube method
[2] = relative permittivity at various frequencies (dimensionless); conditions: Liquid, Frequency=1 MHz, Parallel plate capacitor
[3] = xn = mol fraction of the nth substance listed; conditions: Liquid, Vibrating tube method, x1 = 1
[4] = relative permittivity at various frequencies (dimensionless); xn = mol fraction of the nth substance listed; conditions: Liquid, Frequency=1 MHz, Parallel plate capacitor, x1 = 1

COCCOC [1,2-dimethoxyethane]
[1]
Conditions | mass density [kg/m3]
288.15 K | 872.06
298.15 K | 861.17
308.15 K | 850.13

[2], 96.5 kPa
Conditions | relative permittivity
288.15 K | 7.41
298.15 K | 7.07
308.15 K | 6.75

C1CCCCC1 [cyclohexane]
[1]
Conditions | mass density [kg/m3]
288.15 K | 783.29
298.15 K | 773.86
308.15 K | 764.38

[2], 96.6 kPa
Conditions | relative permittivity
288.15 K | 2.04
298.15 K | 2.03
308.15 K | 2.02

C1CCCCC1 [cyclohexane] + COCCOC
96.6 kPa
Conditions | mass density, 288.15 K [kg/m3] | mass density, 298.15 K [kg/m3] | mass density, 308.15 K [kg/m3] | relative permittivity, 288.15 K | relative permittivity, 298.15 K | relative permittivity, 308.15 K
[3] | 783.29 | 773.86 | 764.38 | – | – | –
[4] | – | – | – | 2.04 | 2.03 | 2.02

CCCCCCCCCCCC [dodecane]
[1]
Conditions | mass density [kg/m3]
288.15 K | 752.44
298.15 K | 745.29
308.15 K | 737.93

[2], 97 kPa
Conditions | relative permittivity
288.15 K | 2.04
298.15 K | 2.02
308.15 K | 2.01

CCCCCCCCCCCC [dodecane] + COCCOC
97 kPa
Conditions | mass density, 288.15 K [kg/m3] | mass density, 298.15 K [kg/m3] | mass density, 308.15 K [kg/m3] | relative permittivity, 288.15 K | relative permittivity, 298.15 K | relative permittivity, 308.15 K
[3] | 752.44 | 745.29 | 737.93 | – | – | –
[4] | – | – | – | 2.04 | 2.02 | 2.01

CCCCCC [hexane]
[1]
Conditions | mass density [kg/m3]
288.15 K | 664.13
298.15 K | 655.14
308.15 K | 646.1

[2], 95.2 kPa
Conditions | relative permittivity
288.15 K | 1.91
298.15 K | 1.89
308.15 K | 1.88

CCCCCC [hexane] + COCCOC
95.2 kPa
Conditions | mass density, 288.15 K [kg/m3] | mass density, 298.15 K [kg/m3] | mass density, 308.15 K [kg/m3] | relative permittivity, 288.15 K | relative permittivity, 298.15 K | relative permittivity, 308.15 K
[3] | 664.13 | 655.14 | 646.1 | – | – | –
[4] | – | – | – | 1.91 | 1.89 | 1.88

CCCCCCCC [octane]
[1]
Conditions | mass density [kg/m3]
288.15 K | 706.6
298.15 K | 698.58
308.15 K | 690.48

[2], 97.1 kPa
Conditions | relative permittivity
288.15 K | 1.97
298.15 K | 1.96
308.15 K | 1.94

CCCCCCCC [octane] + COCCOC
97.1 kPa
Conditions | mass density, 288.15 K [kg/m3] | mass density, 298.15 K [kg/m3] | mass density, 308.15 K [kg/m3] | relative permittivity, 288.15 K | relative permittivity, 298.15 K | relative permittivity, 308.15 K
[3] | 706.6 | 698.58 | 690.48 | – | – | –
[4] | – | – | – | 1.97 | 1.96 | 1.94
